Data: PubChem BioAssay AID1259411 (Chemical Carcinogenesis Research Information System (CCRIS), 2018)
Activity calls are given as the source filed them. No rule for the calls is given here.

Test system: rodent carcinogenicity bioassays, tumor incidence
Assay: CCRIS carcinogenicity studies
Summary of the method: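 Archive of carcinogenicity, mutagenicity, tumor promotion and tumor inhibition results drawn from journals, NCI reports and other sources, expert-reviewed; covers 1985-2011 and is no longer updated.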

SMILES: CCCCCCCN(C)N=O
- carcinogen call (Species: HAMSTER, Strain/Sex: SYRIAN/FEMALE, Route: GAVAGE, Dose: 0, 6.8 MG/KG 1/WK FOR 40 WK (TOTAL DOSE: 0; 2.1 MMOL) (STUDY DURATION: LIFETIME), Dose: 0, 6.8 MG/KG 1/WK FOR 40 WK (TOTAL DOSE: 0; 2.1 MMOL) (STUDY DURATION: LIFETIME), Tumor Site: Type of Lesion: LIVER: CHOLANGIOMA, LUNG: ALVEOLAR/BRONCHIAL CARCINOMA, ALVEOLAR/BRONCHIAL ADENOMA, ADENOSQUAMOUS CARCINOMA, NASAL MUCOS, Tumor Site: Type of Lesion: LIVER: CHOLANGIOMA, LUNG: ALVEOLAR/BRONCHIAL CARCINOMA, ALVEOLAR/BRONCHIAL ADENOMA, ADENOSQUAMOUS CARCINOMA, NASAL MUCOS): active; positive
- carcinogen call (Species: HAMSTER, Strain/Sex: SYRIAN/MALE, Route: GAVAGE, Dose: 0, 6.8 MG/KG 1/WK FOR 40 WK (TOTAL DOSE: 0; 2.1 MMOL) (STUDY DURATION: LIFETIME), Dose: 0, 6.8 MG/KG 1/WK FOR 40 WK (TOTAL DOSE: 0; 2.1 MMOL) (STUDY DURATION: LIFETIME), Tumor Site: Type of Lesion: LIVER: CHOLANGIOMA, HEMANGIOSARCOMA, LUNG: ALVEOLAR/BRONCHIAL CARCINOMA, ALVEOLAR/BRONCHIAL ADENOMA, ADENOSQUAMOUS CARCI): active; positive

SMILES: O.O=C([O-])c1ccccn1.O=C([O-])c1ccccn1.O=C([O-])c1ccccn1.[Cr+3]
- carcinogen call (Species: Mouse, Strain/Sex: B6C3F1 /Female (50/Group), Route: Oral, Dose: 0, 2000, 10,000, 50,000 ppm (average daily doses of 0; 240; 1200; 6100 mg/kg) in diet for 105 wk, Dose: 0, 2000, 10,000, 50,000 ppm (average daily doses of 0; 240; 1200; 6100 mg/kg) in diet for 105 wk): inactive; negative
- carcinogen call (Species: Mouse, Strain/Sex: B6C3F1/Female (50/Group), Route: Oral, Dose: 0, 2,000, 10,000, 50,000 ppm in diet for 105 wk (Study duration: 105 wk), Dose: 0, 2,000, 10,000, 50,000 ppm in diet for 105 wk (Study duration: 105 wk)): inactive; negative
- carcinogen call (Species: Mouse, Strain/Sex: B6C3F1/Male (50/Group), Route: Oral, Dose: 0, 2000, 10,000, 50,000 ppm (average daily doses of 0; 250; 1200; 6565 mg/kg) in diet for 105 wk, Dose: 0, 2000, 10,000, 50,000 ppm (average daily doses of 0; 250; 1200; 6565 mg/kg) in diet for 105 wk): inactive; negative
- carcinogen call (Species: Mouse, Strain/Sex: B6C3F1/Male (50/Group), Route: Oral, Dose: 0, 2,000, 10,000, 50,000 ppm in diet for 105 wk (Study duration: 105 wk), Dose: 0, 2,000, 10,000, 50,000 ppm in diet for 105 wk (Study duration: 105 wk)): inactive; negative
- carcinogen call (Species: Rat, Strain/Sex: F344/N / Female (50/Group), Route: Oral, Dose: 0, 2000, 10,000, 50,000 ppm (average daily doses of 0; 100; 510; 2630 mg/kg) in diet for 105 wk, Dose: 0, 2000, 10,000, 50,000 ppm (average daily doses of 0; 100; 510; 2630 mg/kg) in diet for 105 wk): inactive; negative
- carcinogen call (Species: Rat, Strain/Sex: F344/N / Female (50/Group), Route: Oral, Dose: 0, 2,000, 10,000, 50,000 ppm in diet for 105 wk (Study duration: 105 wk), Dose: 0, 2,000, 10,000, 50,000 ppm in diet for 105 wk (Study duration: 105 wk)): inactive; negative
- carcinogen call (Species: Rat, Strain/Sex: F344/N / Male (50/Group), Route: Oral, Dose: 0, 2000, 10,000, 50,000 ppm (average daily doses of 0; 90; 460; 2400 mg/kg) in diet for 105 wk, Dose: 0, 2000, 10,000, 50,000 ppm (average daily doses of 0; 90; 460; 2400 mg/kg) in diet for 105 wk, Tumor Site: Type of Lesion: Preputial gland: adenoma (1/50, 1/50, 7/50, 4/50)): equivocal
- carcinogen call (Species: Rat, Strain/Sex: F344/N / Male (50/Group), Route: Oral, Dose: 0, 2,000, 10,000, 50,000 ppm in diet for 105 wk (Study duration: 105 wk), Dose: 0, 2,000, 10,000, 50,000 ppm in diet for 105 wk (Study duration: 105 wk), Tumor Site: Type of Lesion: Preputial gland: adenoma (1, 1, 7, 4; P</=0.05 at 10,000 ppm only)): inactive; negative. authors describe as equivocal evidence of carcinogenicity.

SMILES: Nc1c(Cl)c(F)nc(OCC(=O)O)c1Cl
- carcinogen call (Species: Mouse, Strain/Sex: CD-1/Female (60/Group), Route: Oral, Dose: 0, 100, 500, 1000 mg/kg/day of 98.9% fluroxypyr in diet for 18 mo, study duration 18 mo, Dose: 0, 100, 500, 1000 mg/kg/day of 98.9% fluroxypyr in diet for 18 mo, study duration 18 mo): inactive; negative
- carcinogen call (Species: Mouse, Strain/Sex: CD-1/Male (60/Group), Route: Oral, Dose: 0, 100, 500, 1000 mg/kg/day of 98.9% fluroxypyr in diet for 18 mo, study duration 18 mo, Dose: 0, 100, 500, 1000 mg/kg/day of 98.9% fluroxypyr in diet for 18 mo, study duration 18 mo): inactive; negative
- carcinogen call (Species: Rat, Strain/Sex: Fischer 344/Female (50/Group), Route: Oral, Dose: 0, 100, 500, 1000 mg/kg/day of 99.0% fluroxypyr in diet for 2 yr, study duration 2 yr, Dose: 0, 100, 500, 1000 mg/kg/day of 99.0% fluroxypyr in diet for 2 yr, study duration 2 yr): inactive; negative
- carcinogen call (Species: Rat, Strain/Sex: Fischer 344/Male (50/Group), Route: Oral, Dose: 0, 100, 500, 1000 mg/kg/day of 99.0% fluroxypyr in diet for 2 yr, study duration 2 yr, Dose: 0, 100, 500, 1000 mg/kg/day of 99.0% fluroxypyr in diet for 2 yr, study duration 2 yr): inactive; negative

SMILES: Cc1cc2ccccc2c2ccc3c(c12)[C@H]1O[C@H]1[C@@H](O)[C@H]3O
- carcinogen call (Species: MOUSE, Strain/Sex: ICR/FEMALE, Route: INTRAPERITONEAL, Dose: 8 NMOL/5 µL DMSO ON DAY 1, 16 NMOL/10 µL ON DAY 8, AND 32 NMOL/20 µL ON DAY 15 OF AGE (STUDY DURATION: 35 WK), Tumor Site: Type of Lesion: LUNG: TUMORS): active; positive
- carcinogen call (Species: MOUSE, Strain/Sex: ICR/MALE, Route: INTRAPERITONEAL, Dose: 8 NMOL/5 µL DMSO ON DAY 1, 16 NMOL/10 µL ON DAY 8, AND 32 NMOL/20 µL ON DAY 15 OF AGE (STUDY DURATION: 35 WK), Tumor Site: Type of Lesion: LIVER: TUMORS): active; positive

SMILES: CN(C)[C@@H]1C(=O)C(C(N)=O)=C(O)[C@@]2(O)C(=O)C3=C(O)c4c(O)cccc4[C@@](C)(O)[C@H]3C[C@@H]12
- carcinogen call (Species: MOUSE, Strain/Sex: B6C3F1/FEMALE, Route: GAVAGE, Dose: 0, 12500, 25000 PPM IN FEED FOR 103 WK (STUDY DURATION: 104 WK), Dose: 0, 12500, 25000 PPM IN FEED FOR 103 WK (STUDY DURATION: 104 WK)): inactive; negative
- carcinogen call (Species: MOUSE, Strain/Sex: B6C3F1/FEMALE, Route: ORAL, Dose: 0, 12500, 25000 PPM IN DIET FOR 103 WK (STUDY DURATION: 103 WK), Dose: 0, 12500, 25000 PPM IN DIET FOR 103 WK (STUDY DURATION: 103 WK)): inactive; negative
- carcinogen call (Species: MOUSE, Strain/Sex: B6C3F1/MALE, Route: ORAL, Dose: 0, 12500, 25000 PPM IN DIET FOR 103 WK (STUDY DURATION: 103 WK), Dose: 0, 12500, 25000 PPM IN DIET FOR 103 WK (STUDY DURATION: 103 WK)): inactive; negative
- carcinogen call (Species: MOUSE, Strain/Sex: B6C3F1/MALE, Route: ORAL, Dose: 0, 12500, 25000 PPM IN FEED FOR 103 WK (STUDY DURATION: 104 WK), Dose: 0, 12500, 25000 PPM IN FEED FOR 103 WK (STUDY DURATION: 104 WK)): inactive; negative
- carcinogen call (Species: RAT, Strain/Sex: F344/FEMALE, Route: ORAL, Dose: 0, 12500, 25000 PPM IN DIET FOR 103 WK (STUDY DURATION: 103 WK), Dose: 0, 12500, 25000 PPM IN DIET FOR 103 WK (STUDY DURATION: 103 WK)): inactive; negative
- carcinogen call (Species: RAT, Strain/Sex: F344/FEMALE, Route: ORAL, Dose: 0, 12500, 25000 PPM IN FEED FOR 103 WK (STUDY DURATION: 104 WK), Dose: 0, 12500, 25000 PPM IN FEED FOR 103 WK (STUDY DURATION: 104 WK)): inactive; negative
- carcinogen call (Species: RAT, Strain/Sex: F344/MALE, Route: ORAL, Dose: 0, 12500, 25000 PPM IN DIET FOR 103 WK (STUDY DURATION: 103 WK), Dose: 0, 12500, 25000 PPM IN DIET FOR 103 WK (STUDY DURATION: 103 WK)): inactive; negative
- carcinogen call (Species: RAT, Strain/Sex: F344/MALE, Route: ORAL, Dose: 0, 12500, 25000 PPM IN FEED FOR 103 WK (STUDY DURATION: 104 WK), Dose: 0, 12500, 25000 PPM IN FEED FOR 103 WK (STUDY DURATION: 104 WK)): inactive; negative

SMILES: CC1(C)O[C@@H]2C[C@H]3[C@@H]4CCC5=CC(=O)C=C[C@]5(C)[C@@]4(F)[C@@H](O)C[C@]3(C)[C@]2(C(=O)CO)O1
- carcinogen call (Species: RAT, Strain/Sex: SPRAGUE-DAWLEY/MALE, Route: ORAL, Dose: 0, 1.5 UG/ML IN DRINKING WATER FOR AN AVERAGE DAILY DOSE OF 12.7 UG/KG DURING WK10-20 THEN 4.8 UG/KG DURING WK 21-104 (S, Tumor Site: Type of Lesion: LIVER: HEPATOCELLULAR ADENOMA OR CARCINOMA): active; positive

SMILES: C[C@H]1C[C@]2(C)[C@@H](O)CC[C@H]2[C@@H]2CCc3cc(O)ccc3[C@H]21
- carcinogen call (Species: HAMSTER, Strain/Sex: SYRIAN/MALE, Route: SUBCUTANEOUS IMPLANT, Dose: 0, 20 MG IN PELLETS IMPLANTED EVERY 2.5 MO FOR 9 MO (STUDY DURATION: 9 MO)): inactive; negative
